Measurements: paper PMC8493129, “Design and Synthesis of New Quinoxaline Derivatives as Potential Histone Deacetylase Inhibitors Targeting Hepatocellular Carcinoma: In Silico, In Vitro, and SAR Studies” (Frontiers in Chemistry, 2021)
Several values for one entry are separate records, joined by “and”; a condition that tells them apart may be missing. Equal entries are not always repeated.

Key:
[1] = tested on: HepG-2 liver cancer cell line; assay: Anti-proliferative activity (MTT / SRB assay), HepG-2; format: cell-based, human; settings: HepG-2; for IC50: Homo sapiens, HepG2, mean of three separate experiments
Protocol: (§1) The new quinoxaline derivatives of the five series: 6, 7, 8, 9, and 10 were evaluated for their potential anti-proliferative activity against two liver cancer cell lines (HepG-2 and HuH-7) obtained from the American Type Culture Collection.

[2] = tested on: HuH-7 liver cancer cell line; assay: Anti-proliferative activity (MTT / SRB assay), HuH-7; format: cell-based, human; settings: for IC50: Homo sapiens, mean of three separate experiments
Protocol: as §1

HepG-2 cells [3] = assay: Cell cycle analysis by flow cytometry; format: cell-based, human
Protocol: The most compound 6 c incorporating 4-Cl benzylidene side chain was further evaluated through cell cycle analysis in HepG-2 cell line. Such a test was carried out to detect the exact phase at which cell cycle arrest takes place.

HepG-2 cells [4] = assay: Annexin V-FITC apoptosis assay; format: cell-based, human; settings: HepG-2, 1.53 µM
Protocol: It is well-known that cell death may be due to programmed apoptosis or uncontrolled necrosis. Annexin V-based flow cytometry assay as a helpful strategy to determine the exact cause of death was carried out. […] This confirms that the cytotoxic activity of compound 6 c is due to programmed apoptosis, and not to nonspecific necrosis.
The previous compound was analyzed by FACS as we previously described ([Al-Rashood et al., 2020]; [Eliaa et al., 2020]; [Eldehna et al., 2021]).

Bax = assay: Apoptotic marker level (Bax) in HepG-2 cells; format: cell-based, human; settings: control 24.37 pg/ml
Protocol: (§2) The method was performed in detail as previously explained ([Eliaa et al., 2020]).

Bcl-2 = assay: Anti-apoptotic marker level (Bcl-2) in HepG-2 cells; format: cell-based, human; settings: control 5.048 pg/ml
Protocol: as §2

HDAC1 = HDAC1 (Homo sapiens, UniProt Q13547); assay: Histone deacetylase inhibition, homogeneous fluorescence release assay
HDAC4 = HDAC4 (Homo sapiens, UniProt P56524); assay: as above
HDAC6 = target: T1, HDAC6 (Homo sapiens, UniProt Q9UBN7); assay: as above
T1 sequence (Q9UBN7 1-1215): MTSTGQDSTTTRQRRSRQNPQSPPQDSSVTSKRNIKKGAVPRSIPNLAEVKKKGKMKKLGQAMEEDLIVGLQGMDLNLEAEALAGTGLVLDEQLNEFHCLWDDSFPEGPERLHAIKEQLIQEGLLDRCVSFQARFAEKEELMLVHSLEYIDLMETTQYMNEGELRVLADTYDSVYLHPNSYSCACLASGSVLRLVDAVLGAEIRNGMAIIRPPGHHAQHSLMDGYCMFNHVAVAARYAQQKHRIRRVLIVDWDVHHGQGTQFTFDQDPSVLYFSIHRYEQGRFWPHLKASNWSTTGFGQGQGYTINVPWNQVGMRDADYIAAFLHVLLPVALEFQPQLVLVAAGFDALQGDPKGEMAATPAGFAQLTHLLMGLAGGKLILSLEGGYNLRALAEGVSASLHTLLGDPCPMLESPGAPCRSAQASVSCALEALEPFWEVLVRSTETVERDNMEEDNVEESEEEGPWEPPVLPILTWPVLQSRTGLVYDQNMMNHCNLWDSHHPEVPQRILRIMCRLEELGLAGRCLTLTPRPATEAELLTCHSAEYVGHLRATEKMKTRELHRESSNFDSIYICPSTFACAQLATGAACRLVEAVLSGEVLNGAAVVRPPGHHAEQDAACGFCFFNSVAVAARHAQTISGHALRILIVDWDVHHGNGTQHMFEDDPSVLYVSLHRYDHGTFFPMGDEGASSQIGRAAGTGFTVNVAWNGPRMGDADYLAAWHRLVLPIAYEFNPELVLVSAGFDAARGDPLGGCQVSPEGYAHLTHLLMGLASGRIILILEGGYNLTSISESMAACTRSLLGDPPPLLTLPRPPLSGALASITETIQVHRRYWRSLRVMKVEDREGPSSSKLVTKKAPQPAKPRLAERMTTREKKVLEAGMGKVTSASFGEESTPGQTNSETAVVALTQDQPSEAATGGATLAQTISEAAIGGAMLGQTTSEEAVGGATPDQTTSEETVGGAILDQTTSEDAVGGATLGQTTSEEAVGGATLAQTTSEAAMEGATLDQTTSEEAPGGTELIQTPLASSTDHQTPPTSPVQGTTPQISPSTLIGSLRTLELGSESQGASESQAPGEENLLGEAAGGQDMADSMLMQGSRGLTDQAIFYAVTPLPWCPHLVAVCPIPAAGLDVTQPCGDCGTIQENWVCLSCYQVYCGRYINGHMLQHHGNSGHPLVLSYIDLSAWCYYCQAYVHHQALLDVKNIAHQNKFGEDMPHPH

[5] = tested on: HepG-2 and HuH-7 liver cancer cell lines; assay: Anti-proliferative activity, statements covering both cell lines; format: cell-based, human; settings: class by IC50 on HepG-2 and HuH-7
Protocol: as §1

Sequence of HDAC4 (P56524 whole entry): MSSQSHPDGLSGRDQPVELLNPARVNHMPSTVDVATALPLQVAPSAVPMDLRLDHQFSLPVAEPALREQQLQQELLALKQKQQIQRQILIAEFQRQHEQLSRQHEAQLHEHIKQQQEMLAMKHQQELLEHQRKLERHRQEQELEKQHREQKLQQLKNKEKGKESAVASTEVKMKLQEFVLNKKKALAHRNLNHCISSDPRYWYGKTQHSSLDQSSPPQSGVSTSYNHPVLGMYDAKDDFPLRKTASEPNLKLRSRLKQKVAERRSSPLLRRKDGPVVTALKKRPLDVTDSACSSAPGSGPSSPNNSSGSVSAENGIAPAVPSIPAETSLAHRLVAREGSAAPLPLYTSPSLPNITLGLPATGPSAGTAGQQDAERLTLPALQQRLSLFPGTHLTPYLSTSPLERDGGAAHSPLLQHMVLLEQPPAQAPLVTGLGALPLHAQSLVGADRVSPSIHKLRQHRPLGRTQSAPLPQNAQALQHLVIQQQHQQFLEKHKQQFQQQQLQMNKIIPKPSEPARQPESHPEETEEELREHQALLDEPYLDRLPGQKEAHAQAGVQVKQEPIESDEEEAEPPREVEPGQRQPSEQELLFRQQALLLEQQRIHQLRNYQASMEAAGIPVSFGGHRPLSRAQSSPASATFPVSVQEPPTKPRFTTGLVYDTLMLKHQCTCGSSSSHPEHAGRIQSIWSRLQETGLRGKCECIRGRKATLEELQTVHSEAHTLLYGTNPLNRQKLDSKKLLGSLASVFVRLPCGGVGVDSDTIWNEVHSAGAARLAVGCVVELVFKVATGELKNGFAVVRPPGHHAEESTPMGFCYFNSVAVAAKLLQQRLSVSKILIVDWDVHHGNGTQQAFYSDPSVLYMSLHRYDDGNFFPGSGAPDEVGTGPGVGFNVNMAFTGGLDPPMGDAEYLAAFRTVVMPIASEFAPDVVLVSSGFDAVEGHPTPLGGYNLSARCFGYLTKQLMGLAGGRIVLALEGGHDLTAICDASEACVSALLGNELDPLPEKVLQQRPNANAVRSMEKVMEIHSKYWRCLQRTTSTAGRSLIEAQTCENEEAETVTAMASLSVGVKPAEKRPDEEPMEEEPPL
Sequence of HDAC1 (Q13547 whole entry): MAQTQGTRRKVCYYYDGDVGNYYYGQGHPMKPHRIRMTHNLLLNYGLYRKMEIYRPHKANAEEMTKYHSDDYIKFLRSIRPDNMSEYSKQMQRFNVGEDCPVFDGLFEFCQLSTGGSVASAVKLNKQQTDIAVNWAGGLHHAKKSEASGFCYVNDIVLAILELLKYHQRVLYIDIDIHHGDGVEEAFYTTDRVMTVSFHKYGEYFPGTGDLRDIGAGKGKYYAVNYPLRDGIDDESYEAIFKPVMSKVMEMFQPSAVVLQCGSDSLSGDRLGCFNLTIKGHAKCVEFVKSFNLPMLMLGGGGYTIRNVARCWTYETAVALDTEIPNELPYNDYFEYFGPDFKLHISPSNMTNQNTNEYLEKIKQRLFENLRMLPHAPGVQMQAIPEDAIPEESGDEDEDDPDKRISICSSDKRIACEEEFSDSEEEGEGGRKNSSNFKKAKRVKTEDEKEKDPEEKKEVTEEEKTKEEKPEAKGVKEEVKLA

| SMILES | IC50 [1] [µM] | IC50 [2] [µM] | decline in the cell population at G0/G1 phase compared to control (HepG-2 cells [3]; HepG-2, 1.53 µM) [fold] | decline in the cell population at S phase compared to control (HepG-2 cells [3]; HepG-2, 1.53 µM) [fold] | increase in the population of cells at the G2/M phase compared to control (HepG-2 cells [3]; HepG-2, 1.53 µM) [fold] | %G2/M (HepG-2 cells [3]; HepG-2 cells treated at 1.53 µM, control 18.67%) [%] | %S (HepG-2 cells [3]; HepG-2 cells treated at 1.53 µM, control 35.93%) [%] | %G0-G1 (HepG-2 cells [3]; HepG-2 cells treated at 1.53 µM, control 45.40%) [%] | increase in apoptosis percentage compared to the control, early phase (HepG-2 cells [4]) [fold] | increase in apoptosis percentage compared to the control, late phase (HepG-2 cells [4]) [fold] | AnxV-FITC apoptotic cells percentage, late apoptosis (HepG-2 cells [4]; control 0.53%) [%] | AnxV-FITC apoptotic cells percentage, early apoptosis (HepG-2 cells [4]; control 0.62%) [%] | Bax (Bax) [pg/mL] | Bcl-2 (Bcl-2) | IC50 (HDAC1) [nM] | IC50 (HDAC4) [nM] | IC50 (HDAC6) [µM] | fold increase in activity versus corresponding member 9, HepG-2 ([1]; ratio of IC50 values) [fold] | fold increase in activity versus corresponding member 9, HuH-7 ([2]; ratio of IC50 values) [fold] | cytotoxic (anti-proliferative) activity class [5] |
| --- | --- | --- | --- | --- | --- | --- | --- | --- | --- | --- | --- | --- | --- | --- | --- | --- | --- | --- | --- | --- |
| Clc1ccc(C=NNc2nc3ccccc3nc2Cl)cc1 [Compound 6 c, 2-Chloro-3-(2-(4-chlorobenzylidene)hydrazinyl)quinoxaline] | 1.53 | 3.06 | 1.23 | 1.18 | 1.76 | 32.93 | 30.32 | 36.75 | 9.98 | 10.81 | 5.73 | 6.19 | 274.3 | 1.27 pg/mL and 1.278 pg/mL | 1760 | 1390 | 3.46 |  |  |  |
| COc1nc2ccccc2nc1N/N=C1/C(=O)Nc2ccccc21 [Compound 12] | 1.99 | 3.08 |  |  |  |  |  |  |  |  |  |  | 257.9 | 1.571 pg/mL | 2010 | 1720 | 3.62 | 5.81 | 5.33 | very strong (1–10 (very strong)) |
